According to patent US10208074B2, “Pyrazole compounds and method for making and using the compounds” (Rigel Pharmaceuticals, Inc., priority 2015, dated 2019):
Where a name gives a salt, the structure may show the parent alone. Read-outs that look alike come from different tables or passages of the source.

Assays:
IL-23 (p19/p40) = test: IL23-p19 ELISA, Dendritic, LPS (compound screening using DC cells); type: cell-based, Human; conditions: PBMC-derived DC cells, IFNγ primed, LPS 1 μg/ml, 18 hours, 10 pt, read-out: IL23-p19 ELISA, Dendritic, LPS, 10 pt, EC50
Procedure, shortened: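 IL-23 in supernatants quantified by sandwich ELISA (anti-p19 capture, biotinylated anti-p40 detection, chemiluminescent readout) after 18 h LPS (1 μg/ml) stimulation. Cells were monocyte-derived DCs (GM-CSF/IL-4, 7 d), IFNγ-primed 24 h and given compound 1 h before LPS; viability by CellTiter Glo.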

IL-23p19 = test: LPS induced IL23p19 in THP-1 cells (with IFNγ primed) assay; type: cell-based, Human; conditions: THP-1 cells, IFNγ primed, LPS 1 ug/mL, 18 hours, 10 pt, read-out: IL23-p19 ELISA, THP1-IFNy, LPS, 10 pt EC50
Procedure, shortened: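 Readout is secreted IL-23p19, quantified by chemiluminescent sandwich ELISA after 18 h LPS (1 ug/mL) stimulation of THP-1 cells that had been IFNγ-primed (50 ng/mL, ~18 h) and given compound 1 h beforehand at 37 °C. EC50 derived by curve fit; cytotoxicity tracked with Cell Titer Glo.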

Row | EC50 (IL-23 (p19/p40); Homo sapiens, 18 h) | EC50 (IL-23p19; Homo sapiens, THP-1, 18 h) | Compound | other results
1 | 0.305 µM | 0.86 µM | Cn1cc(NC(=O)c2ccc(-c3cn[nH]c3)o2)c(-c2ccc(OCC(C)(C)O)cn2)n1 [Compound I-107, N-(3-(5-(2-hydroxy-2-methylpropoxy)pyridin-2-yl)-1-methyl-1H-pyrazol-4-yl)-5-(1H-pyrazol-4-yl)furan-2-carboxamide] | –
2 | 0.924 µM | 0.224 µM | O=C(Nc1cn(C2C=C(F)C2)nc1-c1ccccn1)c1csc(-c2cn[nH]c2)n1 (stereo not shown) [II-132, N-(1-(3-fluorocyclobut-2-en-1-yl)-3-(pyridin-2-yl)-1H-pyrazol-4-yl)-2-(1H-pyrazol-4-yl)thiazole-4-carboxamide] | –
3 | 0.149 µM | 0.0271 µM | O=C(Nc1cn(CC2CC(O)C2)nc1-c1ccccn1)c1csc(-c2cn[nH]c2)n1 (stereo not shown) [II-123, N-(1-(((1r,3r)-3-hydroxycyclobutyl)methyl)-3-(pyridin-2-yl)-1H-pyrazol-4-yl)-2-(1H-pyrazol-4-yl)thiazole-4-carboxamide] | –
4 | 0.105 µM | 0.0595 µM | CCO[C@H]1C[C@@H](n2cc(NC(=O)c3ccc(-c4cn[nH]c4)o3)c(-c3nc(F)ccc3F)n2)C1 [Compound I-156, N-(3-(3,6-difluoropyridin-2-yl)-1-((1s,3s)-3-ethoxycyclobutyl)-1H-pyrazol-4-yl)-5-(1H-pyrazol-4-yl)furan-2-carboxamide] | –
5 | 0.0557 µM | 0.0861 µM | O=C(Nc1cn(C2COC2)nc1-c1ccccn1)c1csc(-c2cn[nH]c2)n1 [II-34, N-(1-(oxetan-3-yl)-3-(pyridin-2-yl)-1H-pyrazol-4-yl)-2-(1H-pyrazol-4-yl)thiazole-4-carboxamide] | –
6 | 0.564 µM | 0.0615 µM | CCO[C@H]1C[C@@H](n2cc(NC(=O)c3csc(-c4cn[nH]c4)n3)c(-c3ncccc3F)n2)C1 [II-157, N-(1-((cis)-3-ethoxycyclobutyl)-3-(3-fluoropyridin-2-yl)-1H-pyrazol-4-yl)-2-(1H-pyrazol-4-yl)thiazole-4-carboxamide] | –
7 | – | – | CCOCCn1cc(NC(=O)c2ccc(-c3cn[nH]c3)o2)c(-c2ccccn2)n1 [Compound I-38, N-(1-(2-ethoxyethyl)-3-(pyridin-2-yl)-1H-pyrazol-4-yl)-5-(1H-pyrazol-4-yl)furan-2-carboxamide] | EC50 (IL-23 (p19/p40)): 0.0582 µM; EC50 (IL-23p19): 0.172 µM
8 | 0.52 µM | 0.0633 µM | CCO[C@H]1C[C@@H](n2cc(NC(=O)c3ccc(-c4cnn(COP(=O)(O)O)c4)o3)c(-c3ccccn3)n2)C1 [Compound I-35, (4-(5-((1-((1,3-cis)-3-ethoxycyclobutyl)-3-(pyridin-2-yl)-1H-pyrazol-4-yl)carbamoyl)furan-2-yl)-1H-pyrazol-1-yl)methyl phosphate bis-sodium salt] | –
9 | 0.366 µM | 0.0777 µM | COCCOCCn1cc(NC(=O)c2ccc(-c3cn[nH]c3)o2)c(-c2nccs2)n1 [Compound I-64, N-(1-(2-(2-methoxyethoxy)ethyl)-3-(thiazol-2-yl)-1H-pyrazol-4-yl)-5-(1H-pyrazol-4-yl)furan-2-carboxamide] | –
10 | 0.429 µM | 0.88 µM | COCCn1cc(NC(=O)c2ccc(-c3c[nH]nc3C)o2)c(-c2ncccn2)n1 [Compound I-8, N-(1-(2-methoxyethyl)-3-(pyrimidin-2-yl)-1H-pyrazol-4-yl)-5-(3-methyl-1H-pyrazol-4-yl)furan-2-carboxamide] | –
11 | 0.0623 µM | 0.05 µM | CCO[C@H]1C[C@@H](n2cc(NC(=O)c3csc(-c4cn[nH]c4)n3)c(-c3ccccn3)n2)C1 [II-11, N-(1-((1,3-cis)-3-ethoxycyclobutyl)-3-(pyridin-2-yl)-1H-pyrazol-4-yl)-2-(1H-pyrazol-4-yl)thiazole-4-carboxamide] | –
12 | 0.388 µM | 0.279 µM | CC(C)n1cc(NC(=O)c2ccc(-c3cn[nH]c3)o2)c(-c2ccccn2)n1 [Compound I-110, N-(1-isopropyl-3-(pyridin-2-yl)-1H-pyrazol-4-yl)-5-(1H-pyrazol-4-yl)furan-2-carboxamide] | –
13 | 0.0854 µM | 0.0418 µM | COC1CC(n2cc(NC(=O)c3csc(-c4cn[nH]c4)n3)c(-c3ccccn3)n2)C1 (stereo not shown) [II-57, N-{1-(3-Methoxycyclobutyl)-3-(pyridine-2-yl)-1H-pyrazol-4-yl}-2-(1H-pyrazol-4-yl)thiazole-4-carboxamide] | –
14 | – | – | CCOCCn1cc(NC(=O)c2ccc(-c3cn[nH]c3)o2)c(-c2nccs2)n1 [Compound I-118, N-(1-(2-ethoxyethyl)-3-(thiazol-2-yl)-1H-pyrazol-4-yl)-5-(1H-pyrazol-4-yl)furan-2-carboxamide formate] | EC50 (IL-23 (p19/p40); formate): 0.161 µM; EC50 (IL-23p19; formate): 0.0681 µM
15 | 0.458 µM | 0.201 µM | COCCn1cc(NC(=O)c2ccc(-c3cnn(C(=O)OC4(C)CC4)c3)o2)c(-c2ccccn2)n1 [Compound I-21, 1-methylcyclopropyl 4-(5-((1-(2-methoxyethyl)-3-(pyridin-2-yl)-1H-pyrazol-4-yl)carbamoyl)furan-2-yl)-1H-pyrazole-1-carboxylate] | –
16 | 1.25 µM | 6.29 µM | CCO[C@H]1C[C@@H](n2cc(NC(=O)c3ccc(-c4cnn(C)c4)o3)c(-c3ccccn3)n2)C1 [Compound I-31, N-(1-((1,3-cis)-3-ethoxycyclobutyl)-3-(pyridin-2-yl)-1H-pyrazol-4-yl)-5-(1-methyl-1H-pyrazol-4-yl)furan-2-carboxamide] | –
17 | 0.457 µM | 0.0837 µM | Cc1n[nH]cc1-c1nc(C(=O)Nc2cn(C(F)F)nc2-c2ccccn2)cs1 [II-96, N-(1-(difluoromethyl)-3-(pyridin-2-yl)-1H-pyrazol-4-yl)-2-(3-methyl-1H-pyrazol-4-yl)thiazole-4-carboxamide] | –
18 | 2.2 µM | 2.23 µM | O=C(Nc1cn(CCO)nc1-c1ncccn1)c1ccc(-c2cn[nH]c2)o1 [Compound I-15, N-(1-(2-hydroxyethyl)-3-(pyrimidin-2-yl)-1H-pyrazol-4-yl)-5-(1H-pyrazol-4-yl)furan-2-carboxamide] | –
19 | 0.0616 µM | 0.135 µM | CCO[C@H]1C[C@H](n2cc(NC(=O)c3csc(-c4cn[nH]c4)n3)c(-c3ccccn3)n2)C1 [II-12, N-(1-((1,3-trans)-3-ethoxycyclobutyl)-3-(pyridin-2-yl)-1H-pyrazol-4-yl)-2-(1H-pyrazol-4-yl)thiazole-4-carboxamide] | –
20 | 0.0589 µM | 0.038 µM | Cc1n[nH]cc1-c1ccc(C(=O)Nc2cn(C3COC3)nc2-c2ccccn2)o1 [Compound I-30, 5-(3-methyl-1H-pyrazol-4-yl)-N-(1-(oxetan-3-yl)-3-(pyridin-2-yl)-1H-pyrazol-4-yl)furan-2-carboxamide] | –
21 | – | – | COC1CC(n2cc(NC(=O)c3ccc(-c4cn[nH]c4)o3)c(-c3ccccn3)n2)C1 (stereo not shown) [Compound I-75, N-(1-((1s,3s)-3-methoxycyclobutyl)-3-(pyridin-2-yl)-1H-pyrazol-4-yl)-5-(1H-pyrazol-4-yl)furan-2-carboxamide formate] | EC50 (IL-23 (p19/p40)): 0.0195 µM; EC50 (IL-23p19): 0.102 µM
22 | 0.276 µM | 1.32 µM | Cn1cc(-c2ccc(C(=O)Nc3cn(C4COC4)nc3-c3ccccn3)o2)cn1 [Compound I-26, 5-(1-methyl-1H-pyrazol-4-yl)-N-(1-(oxetan-3-yl)-3-(pyridin-2-yl)-1H-pyrazol-4-yl)furan-2-carboxamide] | –
23 | 0.0501 µM | 0.0143 µM | CN1CC(n2cc(NC(=O)c3ccc(-c4cn[nH]c4)o3)c(-c3ccccn3)n2)C1 [Compound I-101, N-{1-(1-Methylazetidin-3-yl)-3-(pyridine-2-yl)-1H-pyrazol-4-yl}-5-(1H-pyrazol-4-yl)furan-2-carboxamide, formate salt] | –
